Data published in US7709700B2, “Method for improving plant transformation efficiency by adding copper ion” (Japan Tobacco Inc., priority 2003, dated 2010).
Where two headings read alike, the source gives them in different places.

Tests used:
[1] = tested on: immature embryos of maize (cultivar: A188); test: Callus formation of immature embryos after 7 days on co-culture media; format: cell-based; conditions: 1 week, FIG. 6
[2] = tested on: immature embryos of maize (cultivar: A188); conditions: 3 days
[3] = tested on: immature embryos of rice (cultivar: Yukihikari); conditions: 0-50 μM in inoculum liquid media; co-culture one week; three experiments; FIG. 7
Procedure: An Agrobacterium tumefaciens super-binary vector designated LBA4404 (pSB134) cultured on AB medium containing 50 mg/l hygromycin and 50 mg/l spectinomycin for 3 to 4 days was scraped with a platinum loop and suspended at a concentration of about 10^9 cfu/ml in 1 ml of AA1 liquid medium containing 100 μM acetosyringone and 0-50 μM CuSO4.5H2O or copper gluconate. Into an Eppendorf tube containing aseptically collected immature embryos (cultivar: Yukihikari) was added 1 ml of the Agrobacterium suspension and the tube was agitated for 30 seconds in a vortex mixer and then allowed to stand at room temperature for 5 minutes. The immature embryos were seeded on nN6-As medium and incubated in darkness at 25° C. for one week.
The weight of co-cultured immature embryos was measured.

[4] = tested on: regenerated plants of maize (cultivar: A188); conditions: 10 μM in LSZ regeneration medium, 3 weeks; FIG. 8
Procedure: The transformed callus was cut into a size of about 2 mm and plated on LSZ regeneration medium containing 10 μM CuSO4.5H2O or copper gluconate, and PPT. After incubation at 25° C. under illumination for 3 weeks, the leaf length of regenerated plants was measured.

[5] = tested on: regenerated plants of rice (cultivar: Yukihikari); conditions: 10 μM in N6R regeneration medium, 3 weeks; FIG. 9
Procedure: Immature embryos of rice (cultivar: Yukihikari) were inoculated with Agrobacterium tumefaciens LBA4404 (pSB134) and cultured on nN6CC medium (N6 salts, N6 vitamins, 0.5 g/l casamino acids, 0.5 g/l L-proline, 1 mg/l 2,4-D, 0.5 mg/l NAA, 0.1 mg/l 6BA, 20 g/l sucrose, 55 g/l sorbitol, 250 mg/l cefotaxime, 250 mg/l carbenicillin, 5 g/l Gelrite, pH 5.8) containing hygromycin to give a transformed callus. The transformed callus was cut into a size of about 2 mm and seeded on N6R regeneration medium (N6 salts with major salts reduced to ½, N6 vitamins, AA amino acids, 1 g/l casamino acids, 0.5 mg/l kinetin, 20 g/l sucrose, 30 g/l sorbitol, 4 g/l Gelrite, pH 5.8) containing 10 μM CuSO4.5H2O or copper gluconate, and hygromycin. After incubation at 25° C. under illumination for 3 weeks, the leaf length of regenerated plants was measured.

[6] = tested on: immature embryos of maize (cultivar: H99)
[7] = tested on: immature embryos of maize (cultivar: A188); conditions: co-culture 1 week on media containing copper sulfate, then 1 week on PPT selective medium; FIG. 3
Procedure: (§1) These calli were cultured on the same medium containing 10 mg/l PPT for 6 weeks under the same conditions. Grown PPT-resistant calli were seeded on LSZ regeneration medium (LSD 1.5 medium deprived of 2,4-D and supplemented with 5 mg/l zeatin) and incubated at 25° C. under illumination for 2-3 weeks. Leaf segments of regenerated plants were excised and assessed for the expression of the GUS gene by X-gluc.
After co-culture for 1 week, the calli grown from immature embryos (cultivar: A188) cultured on a selective medium containing PPT for 1 week were evaluated on a scale of four ratings from 0 (no callus formed) to 3 (the entire scutellum formed callus). […] Further selection on a medium containing PPT and incubation of the resulting calli in a regeneration medium containing PPT gave PPT-resistant plants. Leaf segments of these plants were excised and assessed for the expression of the GUS gene.

[8] = tested on: immature embryos of maize (cultivar: A188)
Source text: Transformation efficiency can be calculated by e.g., counting the number of regenerated plants expressing the GUS gene as transformants among those obtained from inoculated immature embryos and dividing the total number by the number of inoculated immature embryos. Alternatively, it can also be calculated by counting the number of regenerated plants showing resistance against a selective pressure as transformants and dividing the total number by the number of inoculated immature embryos.
as §1
After co-culture for 1 week, the calli grown from immature embryos (cultivar: A188) cultured on a selective medium containing PPT for 1 week were evaluated on a scale of four ratings from 0 (no callus formed) to 3 (the entire scutellum formed callus).

[9] = tested on: immature embryos of rice (cultivar: IR64); conditions: 5 μM copper sulfate in co-culture medium, 1 week; FIG. 4
Procedure: Into an Eppendorf tube containing aseptically collected immature embryos (cultivar: IR64) was added 1 ml of the Agrobacterium suspension and the tube was agitated for 30 seconds in a vortex mixer and then allowed to stand at room temperature for 5 minutes.

[10] = tested on: shoots having emerged from ripe seeds of barley; conditions: cited from earlier work
[11] = tested on: immature embryos of maize (cultivar: H99); conditions: media containing 1-10 μM copper sulfate (1-100 μM tested); but slightly; cited from earlier work
anthers of wheat = conditions: medium containing 10 mg/l copper sulfate and 2.5-5 mg/l silver nitrate; cited from earlier work
[12] = tested on: calli obtained by culturing immature embryos of barley; conditions: media containing copper sulfate; cited from earlier work
[13] = tested on: calli obtained by culturing immature embryos of rice; conditions: media containing copper sulfate; cited from earlier work
[14] = 1 μM CuSO4 in co-culture medium, 13 inoculated immature embryos
[15] = 5 μM CuSO4 in co-culture medium, 13 inoculated immature embryos
[16] = 10 μM CuSO4 in co-culture medium, 14 inoculated immature embryos

Compound: copper gluconate
- callus formation vs medium lacking copper gluconate ([1]; 1, 5 and 10 μM copper gluconate in co-culture media): higher callus formation
- callus formation vs control ([1]; 5 and 10 μM copper gluconate in co-culture media): significantly higher callus formation
- area of the scutellum showing transient expression of the GUS gene vs control medium ([2]; 1, 5 and 10 μFM copper gluconate in co-culture media, heat/centrifugation pretreatment, FIG. 5): wider area
- growth (weight) of co-cultured immature embryos vs control medium [3]: more active growth
- leaf length of regenerated plants vs control regeneration medium [4]: significantly longer
- leaf length of regenerated plants vs control regeneration medium [5]: significantly longer

Compound: O=[N+]([O-])[O-].[Ag+] [silver nitrate, reference compound]
- callus growth vs control medium ([6]; 5 μM silver nitrate in co-culture medium, 3 days, then about 4 weeks without selection, FIG. 2): nearly comparable

Compound: O=S(=O)([O-])[O-].[Cu+2] [copper sulfate]
- area of the scutellum showing transient expression of the GUS gene vs control medium ([2]; 1, 5 and 10 μM copper sulfate in co-culture media, with or without heat/centrifugation pretreatment, FIG. 1): wider area
- average callus diameter greater than that on control co-culture medium [6]: ≥ 2 mm
- PPT-resistant callus formation vs control medium [7]: higher callus formation
- Transformation efficiency (B/A, %) ([8]; 1 μM CuSO4 in co-culture medium): 15.4%
- Number of GUS-positive plants (B) [8, 14]: 2
- Number of regenerated plants [8, 14]: 2
- Transformation efficiency (B/A, %) ([8]; 5 μM CuSO4 in co-culture medium): 46.2%
- Number of GUS-positive plants (B) [8, 15]: 6
- Number of regenerated plants [8, 15]: 6
- Transformation efficiency (B/A, %) ([8]; 10 μM CuSO4 in co-culture medium): 35.7%
- Number of GUS-positive plants (B) [8, 16]: 5
- Number of regenerated plants [8, 16]: 6
- area of the scutellum showing transient expression of the GUS gene vs control medium [9]: wider area
- growth (weight) of co-cultured immature embryos vs control medium [3]: more active growth
- leaf length of regenerated plants vs control regeneration medium [4]: significantly longer
- leaf length of regenerated plants vs control regeneration medium [5]: significantly longer
- shoot growth when shoot meristematic cultures are induced [10]: effective for promoting shoot growth
- induction ratio of shoot meristematic cultures (SMCs) ([10]; medium containing 5 μM copper sulfate and 30 g/l maltose): increases
- callus formation from immature embryos [11]: improved
- embryoid formation (anthers of wheat): increases
- regeneration ratio or number of regenerated plants per callus [12]: increases
- regeneration ratio or number of regenerated plants per callus [13]: increases

Compound: OC[C@H]1O[C@H](O[C@H]2[C@H](O)[C@@H](O)C(O)O[C@@H]2CO)[C@H](O)[C@@H](O)[C@@H]1O (mixture of isomers) [maltose, reference compound]
- brown tissue when shoot meristematic cultures are induced [10]: effective for decreasing brown tissue
